≈ marks a conversion by molar mass, not a printed value.
Legend:
CSNK1A1 = target: T1, CSNK1A1 (Homo sapiens, UniProt P48729); assay: ThermoFisher SelectScreen, CSNK1A1; format: binding; conditions: Table 4
T1 construct: purchased ThermoFisher (SelectScreen)
Method: (§1) To mitigate violation of the linear initial velocity principle, which is a problem in end-point assays when doing dose-responses, the enzyme concentration was carefully optimized, in a total assay volume of 25 μL. The assay was performed using 10 μM ATP, 0.02% Tween-20, kinase buffer from Cell Signaling (#9802) in white 384-well plates. The kinase reaction was done for 30 or 60 min at 30° C., and detection of leftover ATP was measured according to Promega's protocol. […] Fractional activities were obtained from normalized data. Non-linear regression (GraphPad Prism7) and a modified Morrison equation for tight binding was used to determine apparent Ki values for inhibitors, assuming no particular mode of inhibition. An orthogonal binding assay (LanthaScreen) was outsourced to ThermoFisher Scientific's SelectScreen Services to determine IC50 values.
(§2) One of the earliest compounds to be synthesized with favorable enzymatic activity towards JNK1 and JNK3 was CDD-2346. A KINOMEscan was performed for CDD-2346 to establish whether the selectivity of this chemical scaffold was suitable or required optimization. […] To confirm that the activity against each kinase was a true result and not a false positive, CDD-2346 was evaluated in kinase assays using ThermoFisher SelectScreen platform. The results from these assays are provided herein (Table 4). The important innovative steps described are the optimization of selectivity a) for JNK isoforms; b) for kinases considered “in-pathway”; and c) to avoid kinases considered “out-of-pathway”.

CSNK1D = target: T2, CSNK1D (Homo sapiens, UniProt P48730); assay: ThermoFisher SelectScreen, CSNK1D; format: binding
T2 construct: purchased ThermoFisher (SelectScreen)
T2 sequence (P48730 whole entry): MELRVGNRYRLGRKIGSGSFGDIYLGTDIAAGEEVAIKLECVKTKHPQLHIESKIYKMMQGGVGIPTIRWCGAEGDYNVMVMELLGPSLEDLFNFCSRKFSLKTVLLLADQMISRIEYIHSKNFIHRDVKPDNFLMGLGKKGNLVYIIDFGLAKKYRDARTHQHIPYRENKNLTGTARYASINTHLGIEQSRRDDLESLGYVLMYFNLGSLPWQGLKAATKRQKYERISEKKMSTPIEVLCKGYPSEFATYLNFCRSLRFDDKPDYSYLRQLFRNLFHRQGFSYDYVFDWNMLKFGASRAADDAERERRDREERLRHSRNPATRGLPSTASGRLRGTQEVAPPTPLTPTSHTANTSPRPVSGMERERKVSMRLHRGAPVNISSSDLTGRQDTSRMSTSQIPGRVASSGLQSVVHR

DYRK2 = target: T3, DYRK2 (Homo sapiens, UniProt Q92630); assay: ThermoFisher SelectScreen, DYRK2; format: binding; conditions: Table 4
T3 construct: purchased ThermoFisher (SelectScreen)
T3 sequence (Q92630 1-601): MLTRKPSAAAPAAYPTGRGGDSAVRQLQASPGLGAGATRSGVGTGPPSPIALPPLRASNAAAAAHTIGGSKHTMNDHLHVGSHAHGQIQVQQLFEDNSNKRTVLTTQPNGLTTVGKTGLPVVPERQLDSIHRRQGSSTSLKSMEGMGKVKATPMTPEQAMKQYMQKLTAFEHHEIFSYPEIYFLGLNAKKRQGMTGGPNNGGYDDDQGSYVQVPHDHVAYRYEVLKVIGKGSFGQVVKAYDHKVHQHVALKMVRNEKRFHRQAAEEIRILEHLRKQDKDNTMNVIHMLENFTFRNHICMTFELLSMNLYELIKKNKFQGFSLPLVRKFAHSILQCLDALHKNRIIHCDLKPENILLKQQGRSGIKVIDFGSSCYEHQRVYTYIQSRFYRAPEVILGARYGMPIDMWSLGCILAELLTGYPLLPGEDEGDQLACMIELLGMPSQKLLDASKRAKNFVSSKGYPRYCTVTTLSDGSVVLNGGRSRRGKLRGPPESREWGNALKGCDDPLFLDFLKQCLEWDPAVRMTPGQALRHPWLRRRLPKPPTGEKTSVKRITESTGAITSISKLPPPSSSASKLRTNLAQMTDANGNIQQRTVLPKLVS
Method: as §1, §2

MEK4 = target: T4, MEK4 (Homo sapiens, UniProt P45985); assay: ThermoFisher SelectScreen, MEK4; format: binding
T4 construct: purchased ThermoFisher (SelectScreen)
T4 sequence (P45985 1-399): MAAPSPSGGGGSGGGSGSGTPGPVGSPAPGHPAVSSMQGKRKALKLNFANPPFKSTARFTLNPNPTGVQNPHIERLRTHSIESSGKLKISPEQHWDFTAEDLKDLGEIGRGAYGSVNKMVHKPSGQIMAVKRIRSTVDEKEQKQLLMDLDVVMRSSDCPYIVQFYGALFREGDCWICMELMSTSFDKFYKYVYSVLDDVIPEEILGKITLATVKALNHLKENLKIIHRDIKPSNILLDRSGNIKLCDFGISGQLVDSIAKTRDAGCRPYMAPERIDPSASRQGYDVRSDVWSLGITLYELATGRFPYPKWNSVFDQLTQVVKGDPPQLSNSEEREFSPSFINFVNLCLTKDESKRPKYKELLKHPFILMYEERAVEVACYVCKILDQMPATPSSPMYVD

MEK5 = target: T5, MEK5 (Homo sapiens, UniProt Q13163); assay: ThermoFisher SelectScreen, MEK5; format: binding; conditions: Table 4
T5 construct: purchased ThermoFisher (SelectScreen, outsourced service)
T5 sequence (Q13163 1-448): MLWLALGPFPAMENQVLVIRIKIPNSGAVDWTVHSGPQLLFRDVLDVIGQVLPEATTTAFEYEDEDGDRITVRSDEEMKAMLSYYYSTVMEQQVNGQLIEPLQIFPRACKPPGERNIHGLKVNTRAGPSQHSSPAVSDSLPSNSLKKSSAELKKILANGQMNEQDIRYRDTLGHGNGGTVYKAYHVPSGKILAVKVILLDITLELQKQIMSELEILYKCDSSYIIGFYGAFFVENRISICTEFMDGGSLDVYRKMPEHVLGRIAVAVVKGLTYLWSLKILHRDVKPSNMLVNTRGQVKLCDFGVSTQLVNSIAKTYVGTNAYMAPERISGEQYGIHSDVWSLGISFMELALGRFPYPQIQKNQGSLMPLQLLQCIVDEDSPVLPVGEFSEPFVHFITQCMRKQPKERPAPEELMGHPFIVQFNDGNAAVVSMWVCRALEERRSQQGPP
Method: as §1, §2

hVPS34 = target: T6, hVPS34 (Homo sapiens, UniProt Q8NEB9); assay: ThermoFisher SelectScreen, hVPS34; format: binding; conditions: Table 4
T6 construct: purchased ThermoFisher (SelectScreen, outsourced service)
T6 sequence (Q8NEB9 whole entry): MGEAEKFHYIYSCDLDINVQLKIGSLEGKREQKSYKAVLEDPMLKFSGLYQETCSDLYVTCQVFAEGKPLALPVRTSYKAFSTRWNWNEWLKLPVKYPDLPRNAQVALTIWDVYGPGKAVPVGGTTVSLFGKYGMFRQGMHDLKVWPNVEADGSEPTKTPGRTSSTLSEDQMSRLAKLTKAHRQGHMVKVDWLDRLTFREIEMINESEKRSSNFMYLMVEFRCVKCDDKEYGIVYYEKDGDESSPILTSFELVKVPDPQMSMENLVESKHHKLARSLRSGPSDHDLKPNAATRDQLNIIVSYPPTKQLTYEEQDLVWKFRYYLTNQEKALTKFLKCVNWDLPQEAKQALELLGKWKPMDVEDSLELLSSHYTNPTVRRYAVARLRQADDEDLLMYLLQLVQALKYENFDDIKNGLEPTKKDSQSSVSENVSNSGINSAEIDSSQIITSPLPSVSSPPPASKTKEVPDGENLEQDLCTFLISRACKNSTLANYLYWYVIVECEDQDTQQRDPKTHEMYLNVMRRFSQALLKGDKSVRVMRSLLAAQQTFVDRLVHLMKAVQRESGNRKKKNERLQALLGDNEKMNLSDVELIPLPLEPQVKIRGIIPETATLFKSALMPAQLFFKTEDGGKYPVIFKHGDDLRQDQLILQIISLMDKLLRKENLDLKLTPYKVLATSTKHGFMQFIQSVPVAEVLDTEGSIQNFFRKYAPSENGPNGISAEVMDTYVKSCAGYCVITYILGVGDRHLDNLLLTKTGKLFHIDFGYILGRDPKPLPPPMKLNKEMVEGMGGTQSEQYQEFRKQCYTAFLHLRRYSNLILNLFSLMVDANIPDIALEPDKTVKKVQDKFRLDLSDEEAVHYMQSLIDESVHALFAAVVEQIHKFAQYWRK
Method: as §1, §2

JNK3 = JNK3 (Homo sapiens, UniProt P53779); assay: ThermoFisher SelectScreen, JNK3; format: binding
Chain of JNK3 (P53779 whole entry): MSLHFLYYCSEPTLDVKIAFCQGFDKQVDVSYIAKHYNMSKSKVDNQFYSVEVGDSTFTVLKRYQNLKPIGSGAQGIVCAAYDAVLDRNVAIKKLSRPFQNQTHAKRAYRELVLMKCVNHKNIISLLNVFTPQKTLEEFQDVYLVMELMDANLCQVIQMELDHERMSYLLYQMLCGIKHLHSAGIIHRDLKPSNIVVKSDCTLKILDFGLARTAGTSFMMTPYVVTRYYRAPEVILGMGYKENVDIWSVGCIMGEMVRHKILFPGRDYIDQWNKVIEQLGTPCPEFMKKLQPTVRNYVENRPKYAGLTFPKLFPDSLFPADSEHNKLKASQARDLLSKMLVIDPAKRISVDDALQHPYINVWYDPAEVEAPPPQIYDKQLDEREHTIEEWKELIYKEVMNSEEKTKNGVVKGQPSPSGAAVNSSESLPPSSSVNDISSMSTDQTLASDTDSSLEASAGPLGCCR

[1] = In vitro metabolism in mouse liver microsomes; conditions: mouse, microsomes
Method: The target product profile seeks to deliver JNK inhibitor as a once daily oral administration. To prioritize compounds for further development, in vitro metabolism of several CDD JNK inhibitors were determined to approximate the plasma half-life and the rate of metabolism of the compounds in vivo.

JNK1 [2] = target: T7, JNK1 (Homo sapiens, UniProt P45983); assay: ThermoFisher SelectScreen, JNK1; format: binding
T7 sequence (P45983 whole entry): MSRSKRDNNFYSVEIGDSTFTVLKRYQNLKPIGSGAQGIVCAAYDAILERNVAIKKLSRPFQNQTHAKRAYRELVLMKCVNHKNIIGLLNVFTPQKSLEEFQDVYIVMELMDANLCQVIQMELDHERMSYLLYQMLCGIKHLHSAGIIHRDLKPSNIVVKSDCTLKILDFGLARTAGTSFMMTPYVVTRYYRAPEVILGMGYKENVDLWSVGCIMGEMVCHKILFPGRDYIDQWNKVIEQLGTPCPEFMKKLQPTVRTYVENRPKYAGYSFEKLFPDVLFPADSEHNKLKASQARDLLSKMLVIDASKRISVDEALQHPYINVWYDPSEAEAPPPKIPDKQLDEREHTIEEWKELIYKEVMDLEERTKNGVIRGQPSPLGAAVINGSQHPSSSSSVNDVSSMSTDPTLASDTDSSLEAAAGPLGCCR

JNK1 [3] = target: T7, JNK1; assay: Promega NanoBRET intracellular target engagement (tracer K10 displacement), JNK1; format: cell-based
JNK2 = JNK2 (Homo sapiens, UniProt P45984); assay: Promega NanoBRET intracellular target engagement (tracer K10 displacement), JNK2; format: cell-based
Chain of JNK2 (P45984 whole entry): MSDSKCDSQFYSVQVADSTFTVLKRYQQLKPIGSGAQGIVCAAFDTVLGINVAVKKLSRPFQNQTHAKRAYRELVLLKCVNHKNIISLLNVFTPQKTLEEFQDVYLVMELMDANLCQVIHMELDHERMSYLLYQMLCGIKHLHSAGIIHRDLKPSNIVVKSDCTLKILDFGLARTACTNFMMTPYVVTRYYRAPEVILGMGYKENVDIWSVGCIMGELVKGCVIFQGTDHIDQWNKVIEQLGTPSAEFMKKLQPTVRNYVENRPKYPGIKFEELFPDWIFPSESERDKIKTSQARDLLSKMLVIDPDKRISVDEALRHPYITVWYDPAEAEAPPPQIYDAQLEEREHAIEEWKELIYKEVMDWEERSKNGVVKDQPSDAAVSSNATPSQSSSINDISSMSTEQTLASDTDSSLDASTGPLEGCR

T1 sequence (P48729 whole entry): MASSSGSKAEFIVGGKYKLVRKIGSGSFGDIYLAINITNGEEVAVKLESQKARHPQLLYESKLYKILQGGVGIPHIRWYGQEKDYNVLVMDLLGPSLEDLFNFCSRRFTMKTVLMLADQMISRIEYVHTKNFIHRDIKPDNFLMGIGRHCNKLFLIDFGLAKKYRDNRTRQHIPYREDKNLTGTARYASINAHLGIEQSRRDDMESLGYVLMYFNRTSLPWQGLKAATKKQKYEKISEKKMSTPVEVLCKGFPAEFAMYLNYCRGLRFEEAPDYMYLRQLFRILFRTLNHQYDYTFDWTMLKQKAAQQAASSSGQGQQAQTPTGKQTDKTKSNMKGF

| Kd (CSNK1A1) [nM] | Kd (CSNK1D) [nM] | Kd (DYRK2) [nM] | Kd (MEK4) [nM] | Kd (MEK5) [nM] | Kd (hVPS34) [nM] | Kd (JNK3) [nM] | half-life [1] [min] | solubility (Solubility) [µM] | Kd (JNK1 [2]) [nM] | IC50 (JNK1 [3]) [nM] | improvement of NanoBRET IC50 for JNK1 (CDD-2346/CDD-2728) (JNK1 [3]; relative to CDD-2346) [fold] | IC50 (JNK2) [nM] | inhibition of binding to JNK1, JNK2, and JNK3 relative to staurosporine (JNK1 [3]; NanoBRET) | Compound |
| --- | --- | --- | --- | --- | --- | --- | --- | --- | --- | --- | --- | --- | --- | --- |
| 70.5 | 30 | 48 | 9 | 547 | 255 | 0.45 | 16.6 | 176 (≈ 72.2 µg/mL) | – | – | – | – | – | CN(C)Cc1ccc(NC(=O)c2ccn3ncc(-c4cnc5[nH]ccc5c4)c3c2)cc1 [CDD-2482, N-(4-((dimethylamino)methyl)phenyl)-3-(1H-pyrrolo[2,3-b]pyridin-5-yl)pyrazolo[1,5-a]pyridine-5-carboxamide] |
| – | 821 | – | 18 | – | – | – | 85.2 | 19.4 (≈ 8.86 µg/mL) | 1 | 599 | 8.5 | 570 | – | CN(C)C(=O)c1cc(NC(=O)c2cc3c(-c4cnc5[nH]ccc5c4)cccc3s2)ccc1O [CDD-2728, N-(3-(dimethylcarbamoyl)-4-hydroxyphenyl)-4-(1H-pyrrolo[2,3-b]pyridin-5-yl)benzo[b]thiophene-2-carboxamide] |
| 41300 | 2350 | 288 | 26.2 | 4040 | 1140 | 4.34 | 10.8 | 0.3 (≈ 0.111 µg/mL) | – | 770 | – | 442 | – | O=C(Nc1ccc(F)cc1)c1ccn2ncc(-c3cnc4[nH]ccc4c3)c2c1 [CDD-2486, N-(4-fluorophenyl)-3-(1H-pyrrolo[2,3-b]pyridin-5-yl)pyrazolo[1,5-a]pyridine-5-carboxamide] |
| 85 | 55 | 78 | 18 | 579 | 109 | 0.65 | 68.7 | 167 (≈ 66.1 µg/mL) | – | 5100 | – | 1700 | superior to staurosporine | CNCc1ccc(NC(=O)c2ccn3ncc(-c4cnc5[nH]ccc5c4)c3c2)cc1 [CDD-2346, N-(4-((methylamino)methyl)phenyl)-3-(1H-pyrrolo[2,3-b]pyridin-5-yl)pyrazolo[1,5-a]pyridine-5-carboxamide] |
